Assay results published in patent publication US10499642B2, “Isoxazoline-substituted benzamides and analogues as insecticides” (SYNGENTA PARTICIPATIONS AG, priority 2015, dated 2019).
Where two headings read alike, the source gives them in different places.

Experiments:
Assay type in all cases: in vivo
Diabrotica Balteata = test: Diabrotica balteata (corn root worm) maize sprout test; conditions: 96 h, read-out: effect in at least one of the two categories (mortality or growth inhibition)
In short: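 Maize sprouts on agar were sprayed with aqueous test solutions made from 10′000 ppm DMSO stocks, dried, then infested with 6 to 10 L2 larvae per well. Mortality and growth inhibition versus untreated samples were assessed 4 days after infestation; application rate 200 ppm.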

Myzus persicae = Myzus persicae (green peach aphid) sunflower leaf disc test; conditions: foliar, 144 h
Procedure: Myzus persicae (Green Peach Aphid):
Sunflower leaf discs were placed on agar in a 24-well microtiter plate and sprayed with test solutions at an application rate of 200 ppm. After drying, the leaf discs were infested with an aphid population of mixed ages. After an incubation period of 6 days after treatment, samples were checked for mortality. The following compounds gave at least 80% mortality of Myzus persicae: […]

Spodoptera littoralis = Spodoptera littoralis (Egyptian cotton leaf worm) cotton leaf disc test; conditions: foliar, 72 h, read-out: control (at least one of mortality, anti-feedant effect, and growth inhibition)
In short: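 Cotton leaf discs on agar were sprayed with aqueous dilutions of 10′000 ppm DMSO stocks, dried and infested with five L1 larvae. Mortality, anti-feedant effect and growth inhibition were scored against untreated samples 3 days after infestation. Control = any of these higher than untreated.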

Tetranychus urticae = Tetranychus urticae (two-spotted spider mite) bean leaf disc test; conditions: foliar, 192 h
Procedure: Tetranychus urticae (Two-Spotted Spider Mite):
Bean leaf discs on agar in 24-well microtiter plates were sprayed with aqueous test solutions prepared from 10′000 ppm DMSO stock solutions. After drying the leaf discs were infested with a mite population of mixed ages. The samples were assessed for mortality on mixed population (mobile stages) 8 days after infestation.

Plutella xylostella = Plutella xylostella (diamond back moth) artificial diet test; conditions: 120 h, read-out: effect in at least one of the two categories (mortality or growth inhibition)
In short: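 Artificial diet treated with aqueous compound solutions made from DMSO stocks, dried, then infested with L2 larvae (10 to 15 per well). Mortality and growth inhibition scored versus untreated controls 5 days after infestation. Application rate 200 ppm.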

Thrips tabaci = Thrips tabaci (onion thrips) sunflower leaf disc test; conditions: foliar, 144 h
Procedure: Thrips tabaci (Onion Thrips):
Sunflower leaf discs were placed on agar in 24-well microtiter plates and sprayed with aqueous test solutions prepared from 10′000 ppm DMSO stock solutions. After drying the leaf discs were infested with a thrips population of mixed ages. The samples were assessed for mortality 6 days after infestation.

CCC1(COC2=NOC(NC(=O)c3ccc(C4=NO[C@@](c5cc(Cl)c(Cl)c(Cl)c5)(C(F)(F)F)C4)cc3C)C2)COC1 (stereo partly drawn) [Compound A122, N-[3-[(3-ethyloxetan-3-yl)methoxy]-4,5-dihydroisoxazol-5-yl]-2-methyl-4-[(5S)-5-(3,4,5-trichlorophenyl)-5-(trifluoromethyl)-4H-isoxazol-3-yl]benzamide]
≥ 80%: percent effect (mortality or growth inhibition) at 200 ppm (Diabrotica Balteata) | mortality at 200 ppm (Myzus persicae) | percent control (mortality, anti-feedant effect or growth inhibition) at 200 ppm (Spodoptera littoralis) | mortality at 200 ppm (Tetranychus urticae) | percent effect (mortality or growth inhibition) at 200 ppm (Plutella xylostella) | mortality at 200 ppm (Thrips tabaci)

Cc1cc(C2=NO[C@@](c3cc(Cl)c(F)c(Cl)c3)(C(F)(F)F)C2)ccc1C(=O)NC1CC(C=O)=NO1 (stereo partly drawn) [Compound A099]
≥ 80%: percent effect (mortality or growth inhibition) at 200 ppm (Diabrotica Balteata) | mortality at 200 ppm (Myzus persicae) | percent control (mortality, anti-feedant effect or growth inhibition) at 200 ppm (Spodoptera littoralis) | mortality at 200 ppm (Tetranychus urticae) | percent effect (mortality or growth inhibition) at 200 ppm (Plutella xylostella) | mortality at 200 ppm (Thrips tabaci)

Cc1cc(C2=NO[C@@](c3cc(Cl)c(F)c(Cl)c3)(C(F)(F)F)C2)ccc1C(=O)N[C@@H]1CC(Br)=NO1 (single isomer, unassigned) [Compound A147]
≥ 80%: percent effect (mortality or growth inhibition) at 200 ppm (Diabrotica Balteata) | mortality at 200 ppm (Myzus persicae) | percent control (mortality, anti-feedant effect or growth inhibition) at 200 ppm (Spodoptera littoralis) | mortality at 200 ppm (Tetranychus urticae) | percent effect (mortality or growth inhibition) at 200 ppm (Plutella xylostella) | mortality at 200 ppm (Thrips tabaci)

Cc1cc(C2=NO[C@@](c3cc(Cl)c(F)c(Cl)c3)(C(F)(F)F)C2)ccc1C(=O)NC1CC(Oc2ccc(Cl)cc2)=NO1 (stereo partly drawn) [Compound A108, N-[3-(4-chlorophenoxy)-4,5-dihydroisoxazol-5-yl]-4-[(5S)-5-(3,5-dichloro-4-fluoro-phenyl)-5-(trifluoromethyl)-4H-isoxazol-3-yl]-2-methyl-benzamide]
≥ 80%: percent effect (mortality or growth inhibition) at 200 ppm (Diabrotica Balteata) | mortality at 200 ppm (Myzus persicae) | percent control (mortality, anti-feedant effect or growth inhibition) at 200 ppm (Spodoptera littoralis) | mortality at 200 ppm (Tetranychus urticae) | percent effect (mortality or growth inhibition) at 200 ppm (Plutella xylostella) | mortality at 200 ppm (Thrips tabaci)

CCCCOC1=NOC(NC(=O)c2ccc(C3=NO[C@@](c4cc(Cl)c(F)c(Cl)c4)(C(F)(F)F)C3)cc2C)C1 (stereo partly drawn) [Compound A104]
≥ 80%: percent effect (mortality or growth inhibition) at 200 ppm (Diabrotica Balteata) | mortality at 200 ppm (Myzus persicae) | percent control (mortality, anti-feedant effect or growth inhibition) at 200 ppm (Spodoptera littoralis) | mortality at 200 ppm (Tetranychus urticae) | percent effect (mortality or growth inhibition) at 200 ppm (Plutella xylostella) | mortality at 200 ppm (Thrips tabaci)

C=CCOC1=NOC(NC(=O)c2ccc(C3=NO[C@@](c4cc(Cl)c(F)c(Cl)c4)(C(F)(F)F)C3)cc2C)C1 (stereo partly drawn) [Compound A072]
≥ 80%: percent effect (mortality or growth inhibition) at 200 ppm (Diabrotica Balteata) | mortality at 200 ppm (Myzus persicae) | percent control (mortality, anti-feedant effect or growth inhibition) at 200 ppm (Spodoptera littoralis) | mortality at 200 ppm (Tetranychus urticae) | percent effect (mortality or growth inhibition) at 200 ppm (Plutella xylostella) | mortality at 200 ppm (Thrips tabaci)

Cc1cc(C2=NO[C@@](c3cc(Cl)c(F)c(Cl)c3)(C(F)(F)F)C2)ccc1C(=O)NC1CC(OC2CCC2)=NO1 (stereo partly drawn) [Compound A079]
≥ 80%: percent effect (mortality or growth inhibition) at 200 ppm (Diabrotica Balteata) | mortality at 200 ppm (Myzus persicae) | percent control (mortality, anti-feedant effect or growth inhibition) at 200 ppm (Spodoptera littoralis) | mortality at 200 ppm (Tetranychus urticae) | percent effect (mortality or growth inhibition) at 200 ppm (Plutella xylostella) | mortality at 200 ppm (Thrips tabaci)

Cc1cc(C2=NO[C@@](c3cc(Cl)cc(C(F)(F)F)c3)(C(F)(F)F)C2)ccc1C(=O)N(C=O)C1CC(Br)=NO1 (stereo partly drawn) [Compound A142, N-(3-bromo-4,5-dihydroisoxazol-5-yl)-4-[(5S)-5-[3-chloro-5-(trifluoromethyl)phenyl]-5-(trifluoromethyl)-4H-isoxazol-3-yl]-N-formyl-2-methyl-benzamide]
≥ 80%: percent effect (mortality or growth inhibition) at 200 ppm (Diabrotica Balteata) | mortality at 200 ppm (Myzus persicae) | percent control (mortality, anti-feedant effect or growth inhibition) at 200 ppm (Spodoptera littoralis) | mortality at 200 ppm (Tetranychus urticae) | percent effect (mortality or growth inhibition) at 200 ppm (Plutella xylostella) | mortality at 200 ppm (Thrips tabaci)

COC1=NOC(NC(=O)c2ccc(C3=NO[C@@](c4cccc(C(F)(F)F)c4)(C(F)(F)F)C3)cc2C)C1 (stereo partly drawn) [Compound A057]
≥ 80%: percent effect (mortality or growth inhibition) at 200 ppm (Diabrotica Balteata; application rate 200 ppm, maize sprouts, L2 larvae, 4 days after infestation) | mortality at 200 ppm (Myzus persicae; application rate 200 ppm, sunflower leaf discs, population of mixed ages, 6 days after treatment, read-out: mortality) | percent control (mortality, anti-feedant effect or growth inhibition) at 200 ppm (Spodoptera littoralis; application rate 200 ppm, cotton leaf discs, L1 larvae, 3 days after infestation) | mortality at 200 ppm (Tetranychus urticae; application rate 200 ppm, bean leaf discs, mixed population (mobile stages), 8 days after infestation, read-out: mortality) | percent effect (mortality or growth inhibition) at 200 ppm (Plutella xylostella; application rate 200 ppm, artificial diet, L2 larvae, 5 days after infestation) | mortality at 200 ppm (Thrips tabaci; application rate 200 ppm, sunflower leaf discs, population of mixed ages, 6 days after infestation, read-out: mortality)

Cc1cc(C2=NO[C@@](c3cc(Cl)cc(Cl)c3)(C(F)(F)F)C2)ccc1C(=O)NC1CC(OCC(F)(F)F)=NO1 (stereo partly drawn) [Compound A130, 4-[(5S)-5-(3,5-dichlorophenyl)-5-(trifluoromethyl)-4H-isoxazol-3-yl]-2-methyl-N-[3-(2,2,2-trifluoroethoxy)-4,5-dihydroisoxazol-5-yl]benzamide]
≥ 80%: percent effect (mortality or growth inhibition) at 200 ppm (Diabrotica Balteata) | mortality at 200 ppm (Myzus persicae) | percent control (mortality, anti-feedant effect or growth inhibition) at 200 ppm (Spodoptera littoralis) | mortality at 200 ppm (Tetranychus urticae) | percent effect (mortality or growth inhibition) at 200 ppm (Plutella xylostella) | mortality at 200 ppm (Thrips tabaci)

Cc1cc(C2=NO[C@@](c3cc(Cl)c(F)c(Cl)c3)(C(F)(F)F)C2)ccc1C(=O)NC1CC(Cl)=NO1 (stereo partly drawn) [Compound A003, N-(3-chloro-4,5-dihydroisoxazol-5-yl)-4-[(5S)-5-(3,5-dichloro-4-fluoro-phenyl)-5-(trifluoromethyl)-4H-isoxazol-3-yl]-2-methyl-benzamide]
≥ 80%: percent effect (mortality or growth inhibition) at 200 ppm (Diabrotica Balteata) | mortality at 200 ppm (Myzus persicae) | percent control (mortality, anti-feedant effect or growth inhibition) at 200 ppm (Spodoptera littoralis) | mortality at 200 ppm (Tetranychus urticae) | percent effect (mortality or growth inhibition) at 200 ppm (Plutella xylostella) | mortality at 200 ppm (Thrips tabaci)

CC1=NOC(NC(=O)c2ccc(C3=NO[C@@](c4cc(Cl)c(Cl)c(Cl)c4)(C(F)(F)F)C3)cc2C)C1 (stereo partly drawn) [Compound A027, 2-methyl-N-(3-methyl-4,5-dihydroisoxazol-5-yl)-4-[(5S)-5-(3,4,5-trichlorophenyl)-5-(trifluoromethyl)-4H-isoxazol-3-yl]benzamide]
≥ 80%: percent effect (mortality or growth inhibition) at 200 ppm (Diabrotica Balteata) | mortality at 200 ppm (Myzus persicae) | percent control (mortality, anti-feedant effect or growth inhibition) at 200 ppm (Spodoptera littoralis) | mortality at 200 ppm (Tetranychus urticae) | percent effect (mortality or growth inhibition) at 200 ppm (Plutella xylostella) | mortality at 200 ppm (Thrips tabaci)

CC(C)=CCOC1=NOC(NC(=O)c2ccc(C3=NO[C@@](c4cc(Cl)c(F)c(Cl)c4)(C(F)(F)F)C3)cc2C)C1 (stereo partly drawn) [Compound A085]
≥ 80%: percent effect (mortality or growth inhibition) at 200 ppm (Diabrotica Balteata) | mortality at 200 ppm (Myzus persicae) | percent control (mortality, anti-feedant effect or growth inhibition) at 200 ppm (Spodoptera littoralis) | mortality at 200 ppm (Tetranychus urticae) | percent effect (mortality or growth inhibition) at 200 ppm (Plutella xylostella) | mortality at 200 ppm (Thrips tabaci)

Cc1cc(C2=NO[C@@](c3cc(Cl)c(F)c(Cl)c3)(C(F)(F)F)C2)ccc1C(=O)N(C=O)C1CC(C2CC2)=NO1 (stereo partly drawn) [Compound A031, N-(3-cyclopropyl-4,5-dihydroisoxazol-5-yl)-4-[(5S)-5-(3,5-dichloro-4-fluoro-phenyl)-5-(trifluoromethyl)-4H-isoxazol-3-yl]-N-formyl-2-methyl-benzamide]
≥ 80%: percent effect (mortality or growth inhibition) at 200 ppm (Diabrotica Balteata) | mortality at 200 ppm (Myzus persicae) | percent control (mortality, anti-feedant effect or growth inhibition) at 200 ppm (Spodoptera littoralis) | mortality at 200 ppm (Tetranychus urticae) | percent effect (mortality or growth inhibition) at 200 ppm (Plutella xylostella) | mortality at 200 ppm (Thrips tabaci)
